# Source: patent US7547690B2, “Compounds for the treatment of Hepatitis C” (Bristol-Myers Squibb Company, priority 2007, dated 2009)
# Read-outs that look alike come from different tables or passages of the source.
# Columns and labels:
# HCV NS5B = target: T1, HCV NS5B (Hepatitis C virus genotype 1b, UniProt Q9WMX2); assay: HCV NS5B RdRp enzyme assay (standard / modified); type: biochemical; details: HCV RdRp genotype 1b, standard or modified assay not specified
# T1 construct: The protein was expressed with an 18 amino acid C-terminal truncation to enhance the solubility; made in house; host or cells: E. coli BL21(DE3)
# T1 sequence (Q9WMX2 2420-2992): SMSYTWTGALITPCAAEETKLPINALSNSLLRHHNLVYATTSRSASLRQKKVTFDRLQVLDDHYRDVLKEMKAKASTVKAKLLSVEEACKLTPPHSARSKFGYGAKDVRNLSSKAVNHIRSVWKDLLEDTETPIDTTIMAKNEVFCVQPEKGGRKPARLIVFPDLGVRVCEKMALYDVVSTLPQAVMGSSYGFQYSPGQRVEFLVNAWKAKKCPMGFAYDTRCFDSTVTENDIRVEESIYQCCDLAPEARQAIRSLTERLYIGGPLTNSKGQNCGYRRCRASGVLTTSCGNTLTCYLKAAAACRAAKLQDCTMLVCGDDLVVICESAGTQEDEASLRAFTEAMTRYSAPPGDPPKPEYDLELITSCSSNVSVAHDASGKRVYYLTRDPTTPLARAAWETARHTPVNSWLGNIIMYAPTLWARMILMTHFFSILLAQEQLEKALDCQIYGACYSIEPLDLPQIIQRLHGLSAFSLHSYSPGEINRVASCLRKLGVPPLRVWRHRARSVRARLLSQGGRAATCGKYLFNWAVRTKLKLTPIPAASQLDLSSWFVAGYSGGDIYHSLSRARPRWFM
# Protocol: HCV NS5B RdRp cloning, expression, and purification. The cDNA encoding the NS5B protein of HCV, genotype 1b, was cloned into the pET21a expression vector. The protein was expressed with an 18 amino acid C-terminal truncation to enhance the solubility. The E. coli competent cell line BL21(DE3) was used for expression of the protein. Cultures were grown at 37° C. for ˜4 hours until the cultures reached an optical density of 2.0 at 600 nm. The cultures were cooled to 20° C. and induced with 1 mM IPTG. Fresh ampicillin was added to a final concentration of 50 μg/ml and the cells were grown overnight at 20° C.
# Cell pellets (3 L) were lysed for purification to yield 15-24 mgs of purified NS5B. The lysis buffer consisted of 20 mM Tris-HCl, pH 7.4, 500 mM NaCl, 0.5% triton X-100, 1 mM DTT, 1 mM EDTA, 20% glycerol, 0.5 mg/ml lysozyme, 10 mM MgCl2, 15 ug/ml deoxyribonuclease I, and Complete TM protease inhibitor tablets (Roche). After addition of the lysis buffer, frozen cell pellets were resuspended using a tissue homogenizer. To reduce the viscosity of the sample, aliquots of the lysate were sonicated on ice using a microtip attached to a Branson sonicator. The sonicated lysate was centrifuged at 100,000×g for 1 hr at 4° C. and filtered through a 0.2 μm filter unit (Corning).
# The protein was purified using two sequential chromatography steps: Heparin sepharose CL-6B and polyU sepharose 4B (Pharmacia). The chromatography buffers were identical to the lysis buffer but contained no lysozyme, deoxyribonuclease I, MgCl2 or protease inhibitor and the NaCl concentration of the buffer was adjusted according to the requirements for charging the protein onto the column. Each column was eluted with a NaCl gradient which varied in length from 5-50 column volumes depending on the column type. After the final chromatography step, the resulting purity of the enzyme is >90% based on SDS-PAGE analysis. The enzyme was aliquoted and stored at −80° C.
# Standard HCV NS5B RdRp enzyme assay. HCV RdRp genotype 1b assays were run in a final volume of 60 μl in 96 well plates (Corning 3600). The assay buffer is composed of 20 mM Hepes, pH 7.5, 2.5 mM KCl, 2.5 mM MgCl2, 1 mM DTT, 1.6 U RNAse inhibitor (Promega N2515), 0.01 mg/ml BSA (Sigma B6917), and 2% glycerol. All compounds were serially diluted (3-fold) in DMSO and diluted further in water such that the final concentration of DMSO in the assay was 2%. HCV RdRp genotype 1b enzyme was used at a final concentration of 28 nM. A polyA template was used at 6 nM, and a biotinylated oligo-dT12 primer was used at 180 nM final concentration. Template was obtained commercially (Amersham 27-4110). Biotinylated primer was prepared by Sigma Genosys. 3H-UTP was used at 0.6 μCi (0.29 μM total UTP). Reactions were initiated by the addition of enzyme, incubated at 30 ° C. for 60 min, and stopped by adding 25 μl of 50 mM EDTA containing SPA beads (4 μg/μl, Amersham RPNQ 0007). Plates were read on a Packard Top Count NXT after >1 hr incubation at room temperature.
# Modified HCV NS5B RdRp enzyme assay. A modified enzyme assay was performed essentially as described for the standard enzyme assay except for the following: The biotinylated oligo dT12 primer was precaptured on streptavidin-coated SPA beads by mixing primer and beads in assay buffer and incubating at room temperature for one hour. Unbound primer was removed after centrifugation. The primer-bound beads were resuspended in 20 mM Hepes buffer, pH 7.5 and used in the assay at final concentrations of 20 nM primer and 0.67 μg/μl beads. Order of addition in the assay: enzyme (1.75 nM) was added to diluted compound followed by the addition of a mixture of template (0.36 nM), 3H-UTP (0.6 μCi, 0.29 μM), and primer-bound beads, to initiate the reaction; concentrations given are final. Reactions were allowed to proceed for 4 hours at 30° C.
# IC50 values for compounds were determined using seven different [I]. […]
# HCV replicon cells = assay: HCV replicon FRET / luciferase assay; type: cell-based; details: 50% reduction in FRET or luciferase activity in HCV replicon cells
# Protocol: FRET Assay Preparation. The HCV FRET screening assay was performed in 96-well cell culture plates. The FRET peptide (Anaspec, Inc.) (Taliani et al., Anal. Biochem. 1996, 240, 60-67) contains a fluorescence donor, EDANS, near one end of the peptide and an acceptor, DABCYL, near the other end. The fluorescence of the peptide is quenched by […] resonance energy transfer (RET) between the donor and the acceptor, but as the NS3 protease cleaves the peptide the products are released from RET quenching and the fluorescence of the donor becomes apparent. The assay reagent was made as follows: 5× cell Luciferase cell culture lysis reagent from Promega (#E153A) diluted to 1× with dH2O, NaCl added to 150 mM final, the FRET peptide diluted to 20 μM final from a 2 mM stock.
# To prepare plates, HCV replicon cells, with or without a Renilla luciferase reporter gene, were trypsinized and plated in a 96-well plate with titrated test compounds added in columns 3 through 12; columns 1 and 2 contained a control compound (HCV control inhibitor), and the bottom row contained cells with DMSO only. The plates were then placed in a CO2 incubator at 37° C.
# Assays. Subsequent to addition of the test compounds described above (FRET Assay Preparation), at various times the plate was removed and Alamar blue solution (Trek Diagnostics, #00-100) was added to measure cellular toxicity. After reading in a Cytoflour 4000 instrument (PE Biosystems), plates were rinsed with PBS and then used for FRET assay by the addition of 30 ul of the FRET peptide assay reagent described above (FRET Assay Preparation) per well. The plate was then placed into the Cytoflour 4000 instrument which had been set to 340 excite/490 emission, automatic mode for up to 20 cycles and the plate read in a kinetic mode. Typically, the signal to noise using an endpoint analysis after the reads was at least three-fold. Alternatively, after Alamar blue reading, plates were rinsed with PBS, then used for luciferase assay using the Promega Dual-Glo Luciferase Assay System or the Promega EnduRen Live Cell Substrate assay.
# Compound analysis was performed by quantification of the relative HCV replicon inhibition and the relative cytotoxicity values. To calculate cytoxicity values, the average Alamar Blue fluorescence signals from the control wells were set as 100% non-toxic. The individual signals in each of the compound test wells were then divided by the average control signal and multiplied by 100% to determine […]. To calculate the HCV replicon inhibition values, an average background value was obtained from the two wells containing the highest amount of HCV control inhibitor at the end of the assay period. These numbers were similar to those obtained from naïve Huh-7 cells. The background numbers were then subtracted from the average signal obtained from the control wells and this number was used as 100% activity. The individual signals in each of the compound test wells were then divided by the averaged control values after background subtraction and multiplied by 100% to determine percent activity. EC50 values were calculated as the concentration which caused a 50% reduction in FRET or luciferase activity. The two numbers generated for the compound plate, percent cytoxicity and percent activity, were used to determine compounds of interest for further analysis.
# [1] = Hepatitis C virus, read-out: EC50
SMILES,IC50 (HCV NS5B; read-out: IC50) [nM],EC50 (HCV replicon cells; [1]) [nM],IC50 (HCV NS5B) [nM],EC50 (HCV replicon cells) [nM],EC50 (HCV replicon cells; read-out: EC50) [nM]
COc1ccc2c(c1)C1CC1(C(=O)N1C3CC1CN(C)C3)Cn1c-2c(C2CCCCC2)c2ccc(C(=O)NS(=O)(=O)C3CCOCC3)cc21 (centres unmarked),2.4 to 500,2.4 to 500,–,–,–
COc1ccc2c(c1)C1CC1(C(=O)N1CC3COCC(C1)N3)Cn1c-2c(C2CCCCC2)c2ccc(C(=O)NS(=O)(=O)N(C)C)cc21 (centres unmarked),2.4 to 500,2.4 to 500,–,–,–
COc1ccc2c(c1)C1CC1(C(=O)N1[C@@H]3C[C@H]1CN(C)C3)Cn1c-2c(C2CCCCC2)c2ccc(C(=O)NS(=O)(=O)C3CC3)cc21 (some centres unmarked),2.4 to 500,2.4 to 500,–,–,–
COc1ccc2c(c1)[C@@H]1C[C@]1(C(=O)N1C3CCC1C1CCC3N1C)Cn1c-2c(C2CCCCC2)c2ccc(C(=O)NS(=O)(=O)N(C)C)cc21 [drawing 161],–,–,2.4 to 500,2.4 to 500,–
COc1ccc2c(c1)[C@@H]1C[C@]1(C(=O)N1CC3CC(C1)N3C)Cn1c-2c(C2CCCCC2)c2ccc(C(=O)NS(=O)(=O)N(C)C)cc21,2.4 to 500,2.4 to 500,–,–,–
COc1ccc2c(c1)C1CC1(C(=O)N1CCN3CCC1CC3)Cn1c-2c(C2CCCCC2)c2ccc(C(=O)NS(=O)(=O)N(C)C)cc21 (centres unmarked),2.4 to 500,2.4 to 500,–,–,–
CCN1CC2CC(C1)N2C(=O)[C@]12C[C@H]1c1cc(OC)ccc1-c1c(C3CCCCC3)c3ccc(C(=O)NS(=O)(=O)N(C)C)cc3n1C2,2.4 to 500,2.4 to 500,–,–,–
COc1ccc2c(c1)C1CC1(C(=O)N1C[C@@H]3C[C@H]1CN3C)Cn1c-2c(C2CCCCC2)c2ccc(C(=O)NS(=O)(=O)C3CC3)cc21 (some centres unmarked) [drawing 51],2.4 to 500,–,–,–,> 500
COc1ccc2c(c1)C1CC1(S(=O)(=O)N1C3CC1CN(C)C3)Cn1c-2c(C2CCCCC2)c2ccc(C(=O)NS(=O)(=O)N3CCOCC3)cc21 (centres unmarked),2.4 to 500,2.4 to 500,–,–,–
COc1ccc2c(c1)C1CC1(C(=O)N1C[C@@H]3C[C@H]1CN3C)Cn1c-2c(C2CCCCC2)c2ccc(C(=O)NS(=O)(=O)N(C)C)cc21 (some centres unmarked),< 20,2.4 to 500,–,–,–
COc1ccc2c(c1)C1CC1(C(=O)N1C[C@H]3C[C@@H](C1)c1cccc(=O)n1C3)Cn1c-2c(C2CCCCC2)c2ccc(C(=O)NS(=O)(=O)N(C)C)cc21 (some centres unmarked),< 70,2.4 to 500,–,–,–
COc1ccc2c(c1)C1CC1(C(=O)N1CC3(C)CN(C)CC(C)(C1)C3)Cn1c-2c(C2CCCCC2)c2ccc(C(=O)NS(C)(=O)=O)cc21 (centres unmarked),2.4 to 500,2.4 to 500,–,–,–
COc1ccc2c(c1)C1CC1(C(=O)N1CCN3CCC1CC3)Cn1c-2c(C2CCCCC2)c2ccc(C(=O)NS(=O)(=O)N3CCN(C)CC3)cc21 (centres unmarked),2.4 to 500,2.4 to 500,–,–,–
COc1ccc2c(c1)C1CC1(C(=O)N1C[C@@H]3C[C@H]1CN3CC(C)C)Cn1c-2c(C2CCCCC2)c2ccc(C(=O)NS(=O)(=O)C(C)C)cc21 (some centres unmarked) [drawing 95],2.4 to 500,–,–,–,2.4 to 500
COc1ccc2c(c1)C1CC1(C(=O)N1CC3CN(C)CC(C1)N3C(C)=O)Cn1c-2c(C2CCCCC2)c2ccc(C(=O)NS(=O)(=O)N(C)C)cc21 (centres unmarked),2.4 to 500,2.4 to 500,–,–,–
COc1ccc2c(c1)C1CC1(C(=O)N1CCN3CCC1CC3)Cn1c-2c(C2CCCCC2)c2ccc(C(=O)NS(=O)(=O)C3CC3)cc21 (centres unmarked) [drawing 50],2.4 to 500,2.4 to 500,–,–,–
COc1ccc2c(c1)C1CC1(C(=O)N1CCN3CCC1C3)Cn1c-2c(C2CCCCC2)c2ccc(C(=O)NS(=O)(=O)N(C)C)cc21 (centres unmarked),2.4 to 500,2.4 to 500,–,–,–
COc1ccc2c(c1)C1CC1(C(=O)N1C[C@H]3C[C@@H]1CN3C(=O)OC(C)(C)C)Cn1c-2c(C2CCCCC2)c2ccc(C(=O)NS(=O)(=O)C(C)C)cc21 (some centres unmarked),2.4 to 500,2.4 to 500,–,–,–
COc1ccc2c(c1)C1CC1(C(=O)N1C[C@@H]3C[C@H]1CN3C(=O)OC(C)(C)C)Cn1c-2c(C2CCCCC2)c2ccc(C(=O)NS(=O)(=O)C3CC3)cc21 (some centres unmarked),2.4 to 500,2.4 to 500,–,–,–
COc1ccc2c(c1)C1CC1(C(=O)N1C3COCC1CN(C)C3)Cn1c-2c(C2CCCCC2)c2ccc(C(=O)NS(=O)(=O)N(C)C)cc21 (centres unmarked),2.4 to 500,2.4 to 500,–,–,–
CCN1C[C@H]2C[C@@H]1CN2C(=O)C12CC1c1cc(OC)ccc1-c1c(C3CCCCC3)c3ccc(C(=O)NS(=O)(=O)N4CCC4)cc3n1C2 (some centres unmarked),2.4 to 500,2.4 to 500,–,–,–
COc1ccc2c(c1)[C@@H]1C[C@]1(C(=O)N1C[C@@H]3C[C@H]1CN3C(=O)OC(C)(C)C)Cn1c-2c(C2CCCCC2)c2ccc(C(=O)NS(=O)(=O)N(C)C)cc21,2.4 to 500,2.4 to 500,–,–,–
COc1ccc2c(c1)C1CC1(C(=O)N1CC3CC(C1)c1cccc(=O)n1C3)Cn1c-2c(C2CCCCC2)c2ccc(C(=O)NS(=O)(=O)N(C)C)cc21 (centres unmarked),2.4 to 500,2.4 to 500,–,–,–
COc1ccc2c(c1)C1CC1(C(=O)N1CC3CN(C)CC(C1)N3)Cn1c-2c(C2CCCCC2)c2ccc(C(=O)NS(=O)(=O)N(C)C)cc21 (centres unmarked),2.4 to 500,2.4 to 500,–,–,–
COc1ccc2c(c1)C1CC1(C(=O)N1C3CCCC1CN(C)C3)Cn1c-2c(C2CCCCC2)c2ccc(C(=O)NS(=O)(=O)C(C)C)cc21 (centres unmarked),2.4 to 500,2.4 to 500,–,–,–
